According to the supplement of paper PMC11208160:

Test: recombinant barcode read abundance after kanamycin selection (control-corrected) (log10(CPM+1)); higher = more efficient recombination; sequences stand for … in AGTGCAGAGAAAATCGGCCAGTTTTCTCTGCCTGCAGTCCGCATGCCGT…AGATTTATGCAGCGGACTGCCTTTCTCCCAAAGTGATAAACCGGACAGTATCATGGACCGGTTTTCCCGGTAATCCGTATTTGCAAGGTTGGTTTCACT; site = the 11-nt target
Summary of the method: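 Recombination efficiency draws on barcodes counted at recombinant junctions in a pooled E. coli screen of targets paired with IS621 bridge RNA target-binding loops. The counts were converted to counts per million, averaged and corrected against the chloramphenicol/ampicillin LB agar control, then reported as log10(CPM+1). Selection plates held chloramphenicol/ampicillin/kanamycin with 0.1 mM IPTG, with two replicates per condition.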
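Also: IS621 recombinase and bridge RNA in Escherichia coli cells.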

| Sequence | recombinant barcode read abundance (log10) |
| --- | --- |
| TTAACTACTTGGGTTCTAACCTGTTGCTC (site TTAACTACTTA) | 0 |
| TTAAGACCTTGGGTTCTAACCTGTTGCCT (site TTAAGACCTAG) | 1.37 |
| TTAAGACCTTGGGTTCTAACCTGTTGCCT (site TTAAGCCCTAG) | 0.336 |
| TTAAGTCCTTGGGTTCTAACCTGTTGCCT (site TTAAGTCCTAG) | 0.448 |
| TTAAGTCCTTGGGTTCTAACCTGTTGCCT (site TTCAGTCCTAT) | 0.134 |
| TTACAATCTTGGGTTCTAACCTGTTGCCT (site ATACAATCTAG) | 0.31 |
| TTACAATCTTGGGTTCTAACCTGTTGCCT (site CTACAATCTAG) | 0.337 |
| TTACAATCTTGGGTTCTAACCTGTTGCCT (site GTACAATCTAG) | 0.0953 |
| TTACAATCTTGGGTTCTAACCTGTTGCCT (site TTACAATCTAG) | 0.764 |
| TTACCTACTTGGGTTCTAACCTGTTGCCT (site TTACCAACTAG) | 0.237 |
| TTACCTACTTGGGTTCTAACCTGTTGCCT (site TTACCCACTAG) | 0.0698 |
| TTACCTACTTGGGTTCTAACCTGTTGCCT (site TTACCGACTAG) | 0.278 |
| TTACCTACTTGGGTTCTAACCTGTTGCCT (site TTACCTACTAG) | 0.802 |
| TTACGAGCTTGGGTTCTAACCTGTTGCCT (site TCACTAGCTAG) | 0.131 |
| TTACGAGCTTGGGTTCTAACCTGTTGCCT (site TTACGAGCTAG) | 1.08 |
| TTACGCACTTGGGTTCTAACCTGTTGCCT (site TAACCCACTAG) | 0.264 |
| TTACGCACTTGGGTTCTAACCTGTTGCCT (site TTACGCACTAG) | 1.34 |
| TTACGCGCTTGGGTTCTAACCTGTTGCGG (site TTACGAGCTCC) | 0.258 |
| TTACGCGCTTGGGTTCTAACCTGTTGCGG (site TTACGCGCTCC) | 1.67 |
| TTACGCGCTTGGGTTCTAACCTGTTGCGG (site TTACGGGCTCC) | 0.0728 |
| TTACGCGCTTGGGTTCTAACCTGTTGCGG (site TTACGTGCTCC) | 0.0492 |
| TTAGACTCTTGGGTTCTAACCTGTTGCCA (site TTAGACTCTTA) | 0.0659 |

| Sequence | recombinant barcode read abundance (log10) |
| --- | --- |
| TTAGACTCTTGGGTTCTAACCTGTTGCCA (site TTAGACTCTTG) | 1.06 |
| TTAGCTTCTTGGGTTCTAACCTGTTGCCT (site TTAGCATCTAG) | 0.078 |
| TTAGCTTCTTGGGTTCTAACCTGTTGCCT (site TTAGCCTCTAG) | 0.0176 |
| TTAGCTTCTTGGGTTCTAACCTGTTGCCT (site TTAGCGTCTAG) | 0.0371 |
| TTAGCTTCTTGGGTTCTAACCTGTTGCCT (site TTAGCTTCTAG) | 0.163 |
| TTATACACTTGGGTTCTAACCTGTTGCAG (site CAGCGGTCTTC) | 0.0563 |
| TTATACACTTGGGTTCTAACCTGTTGCAG (site TTATACACTCT) | 1.98 |
| TTATGAGCTTGGGTTCTAACCTGTTGCCG (site ATATGAGCTTG) | 0.012 |
| TTATGAGCTTGGGTTCTAACCTGTTGCCG (site TTATGAGCTCG) | 1.2 |
| TTATGGTCTTGGGTTCTAACCTGTTGCTA (site TCTTGGTCTTA) | 0.257 |
| TTATGGTCTTGGGTTCTAACCTGTTGCTA (site TTATGGTCTTA) | 0.705 |
| TTATTGTCTTGGGTTCTAACCTGTTGCCT (site TTATTGTCTAG) | 1.37 |
| TTATTGTCTTGGGTTCTAACCTGTTGCCT (site TTCTTGCCTAG) | 0.024 |
| TTCAAACCTTGGGTTCTAACCTGTTGCCT (site TTCAAAACTAG) | 0.0532 |
| TTCAAACCTTGGGTTCTAACCTGTTGCCT (site TTCAAACCTAG) | 0.612 |
| TTCAAACCTTGGGTTCTAACCTGTTGCCT (site TTCAAAGCTAG) | 0.0476 |
| TTCAAACCTTGGGTTCTAACCTGTTGCCT (site TTCAAATCTAG) | 0.115 |
| TTCAAATCTTGGGTTCTAACCTGTTGCCT (site TTCAAAACTAG) | 0.0847 |
| TTCAAATCTTGGGTTCTAACCTGTTGCCT (site TTCAAACCTAG) | 0.242 |
| TTCAAATCTTGGGTTCTAACCTGTTGCCT (site TTCAAAGCTAG) | 0.182 |
| TTCAAATCTTGGGTTCTAACCTGTTGCCT (site TTCAAATCTAG) | 0 |
| TTCAAGCCTTGGGTTCTAACCTGTTGCCT (site TTCAAGACTAG) | 0.0598 |

| Sequence | recombinant barcode read abundance (log10) |
| --- | --- |
| TTCAAGCCTTGGGTTCTAACCTGTTGCCT (site TTCAAGCCTAG) | 0.329 |
| TTCAAGCCTTGGGTTCTAACCTGTTGCCT (site TTCAAGGCTAG) | 0.0261 |
| TTCAAGCCTTGGGTTCTAACCTGTTGCCT (site TTCAAGTCTAG) | 0.0767 |
| TTCACACCTTGGGTTCTAACCTGTTGCCT (site TTCACACCTAG) | 0.385 |
| TTCACACCTTGGGTTCTAACCTGTTGCCT (site TTCACAGCTAG) | 0.00569 |
| TTCAGGGCTTGGGTTCTAACCTGTTGCAG (site AGAGCCTCTTA) | 0.111 |
| TTCAGGGCTTGGGTTCTAACCTGTTGCAG (site TTCAGGGCTCT) | 1.99 |
| TTCATACCTTGGGTTCTAACCTGTTGCTT (site GTCTTACCTAA) | 0.0129 |
| TTCATACCTTGGGTTCTAACCTGTTGCTT (site TTCATACCTAA) | 0.0848 |
| TTCATGTCTTGGGTTCTAACCTGTTGCTT (site CTCATGTCTAA) | 0.138 |
| TTCATGTCTTGGGTTCTAACCTGTTGCTT (site TTCATGTCTAA) | 0.421 |
| TTCCACACTTGGGTTCTAACCTGTTGCGG (site TTCCAAACTCC) | 0.116 |
| TTCCACACTTGGGTTCTAACCTGTTGCGG (site TTCCACACTCC) | 1.04 |
| TTCCGCTCTTGGGTTCTAACCTGTTGCCT (site ATCCGCTCTAG) | 0.112 |
| TTCCGCTCTTGGGTTCTAACCTGTTGCCT (site CTCCGCTCTAG) | 0.121 |
| TTCCGCTCTTGGGTTCTAACCTGTTGCCT (site GTCCGCTCTAG) | 0.139 |
| TTCCGCTCTTGGGTTCTAACCTGTTGCCT (site TTCCGCTCTAG) | 1.26 |
| TTCCTAGCTTGGGTTCTAACCTGTTGCCA (site ATCCTAGCTCG) | 0.493 |
| TTCCTAGCTTGGGTTCTAACCTGTTGCCA (site TTCCTAGCTTG) | 0.109 |
| TTCCTGACTTGGGTTCTAACCTGTTGCCT (site CTCCTGCCTAG) | 0.0475 |
| TTCCTGACTTGGGTTCTAACCTGTTGCCT (site TTCCTGACTAG) | 1.69 |
| TTCGACGCTTGGGTTCTAACCTGTTGCCT (site TTAGACTCTAG) | 0.152 |

| Sequence | recombinant barcode read abundance (log10) |
| --- | --- |
| TTCGACGCTTGGGTTCTAACCTGTTGCCT (site TTCGACGCTAG) | 1.03 |
| TTCGACTCTTGGGTTCTAACCTGTTGCTA (site TACGACTCTAA) | 0.137 |
| TTCGACTCTTGGGTTCTAACCTGTTGCTA (site TTCGACTCTTA) | 1.07 |
| TTCGGACCTTGGGTTCTAACCTGTTGCGG (site GGGACCACTTA) | 0.677 |
| TTCGGACCTTGGGTTCTAACCTGTTGCGG (site TTCGGACCTCC) | 2.62 |
| TTCTACCCTTGGGTTCTAACCTGTTGCCT (site TACTACCCTAG) | 0.0731 |
| TTCTACCCTTGGGTTCTAACCTGTTGCCT (site TCCTACCCTAG) | 0.149 |
| TTCTACCCTTGGGTTCTAACCTGTTGCCT (site TGCTACCCTAG) | 0.0636 |
| TTCTACCCTTGGGTTCTAACCTGTTGCCT (site TTCTACCCTAG) | 0.449 |
| TTCTAGACTTGGGTTCTAACCTGTTGCCA (site GTCTATACTTG) | 0.16 |
| TTCTAGACTTGGGTTCTAACCTGTTGCCA (site TTCTAGACTTG) | 0.353 |
| TTCTCGCCTTGGGTTCTAACCTGTTGCCT (site TTCACGCCTAG) | 0.0182 |
| TTCTCGCCTTGGGTTCTAACCTGTTGCCT (site TTCCCGCCTAG) | 0.536 |
| TTCTCGCCTTGGGTTCTAACCTGTTGCCT (site TTCGCGCCTAG) | 0.00706 |
| TTCTCGCCTTGGGTTCTAACCTGTTGCCT (site TTCTCGCCTAG) | 0.576 |
| TTCTGTCCTTGGGTTCTAACCTGTTGCCT (site TTCTATCCTAG) | 0.0361 |
| TTCTGTCCTTGGGTTCTAACCTGTTGCCT (site TTCTCTCCTAG) | 0.0821 |
| TTCTGTCCTTGGGTTCTAACCTGTTGCCT (site TTCTGTCCTAG) | 0.799 |
| TTCTGTCCTTGGGTTCTAACCTGTTGCCT (site TTCTTTCCTAG) | 0.0428 |
| TTCTGTTCTTGGGTTCTAACCTGTTGCCT (site TTCTCTTCTAG) | 0.0281 |
